Test results reported in US12522587B2, “Cancer treatments targeting cancer stem cells” (Remedy Plan, Inc., priority 2018, dated 2026).
Read-outs that look alike come from different tables or passages of the source.

Key:
AGS cells = experiment: Cell viability in AGS cells (CellTiter Glo2, 8-point dose response, 4 days); assay type: cell-based, human
Protocol: AGS cells were treated with DMSO (no drug control) or each compound in Table 5 in an 8-point dose response for 4 days. Cell viability was measured using CellTiter Glo2. The IC50 of each compound was determined using CDD Vault.

MV-4-11 cells = experiment: Cell viability in MV-4-11 cells (CellTiter Glo2, 4 days); assay type: cell-based; conditions: Homo sapiens, MV4-11, 96 h
Protocol: Approximately 10,000 MV-4-11 cells per well of a 96-well plate were treated with DMSO (no drug control) or each compound in Table 6 in an 8-point dose response for 4 days. Cell viability was measured using CellTiter Glo2. The IC50 of each compound was determined using CDD Vault.

RS4;11 cells = experiment: Cell viability in RS4;11 cells (CellTiter Glo2, 4 days); assay type: cell-based; conditions: Homo sapiens, 96 h
Protocol: Approximately 10,000 RS4;11 cells per well of a 96-well plate were treated with DMSO (no drug control) or each compound in Table 6 in an 8-point dose response for 4 days. Cell viability was measured using CellTiter Glo2. The IC50 of each compound was determined using CDD Vault.

Row | IC50 (AGS cells; Homo sapiens, AGS, 96 h) | IC50 (MV-4-11 cells) | IC50 (RS4;11 cells) | IC50 (AGS cells) | Structure (SMILES)
1 | > 17000 nM | 10400 nM | 4920 nM | > 16900 nM | CCC(=O)N1CCc2cc(-c3ccc(C(=O)NCc4cccnc4)cn3)ccc21 [Compound I-54, 6-(1-propionylindolin-5-yl)-N-(pyridin-3-ylmethyl)nicotinamide]
2 | 1050 nM | 670 nM | 270 nM | 1020 nM | CCC(=O)N1CCc2cc(-c3ccc(C(=O)NCc4cccnc4)cc3)cc(C)c21 [Compound I-17, 4-(7-methyl-1-propionylindolin-5-yl)-N-(pyridin-3-ylmethyl)benzamide]
3 | 490 nM | 565 nM | 886 nM | 653 nM | CCC(=O)N1CCc2c1ccc(-c1ccc(C(=O)NCc3cccnc3)cc1)c2C [Compound I-80, 4-(4-methyl-1-propionylindolin-5-yl)-N-(pyridin-3-ylmethyl)benzamide]
4 | 1090 nM | 613 nM | 237 nM |  | CCC(=O)N(C)c1ccc(-c2ccc(C(=O)NCc3cccnc3)cc2)cc1Cl [Compound I-225, 3′-chloro-4′-(N-methylpropionamido)-N-(pyridin-3-ylmethyl)-[1,1′-biphenyl]-4-carboxamide]
5 | 10300 nM | 1470 nM | 2550 nM | 17500 nM | CC(=O)N(C)c1ccc(-c2ccc(C(=O)NCc3cccnc3)nc2)cc1 [Compound I-202, 5-(4-(N-methylacetamido)phenyl)-N-(pyridin-3-ylmethyl)picolinamide]

More lines, now with the values behind:

Row | Structure (SMILES) | IC50 (AGS cells; Homo sapiens, AGS, 96 h) | IC50 (MV-4-11 cells) | IC50 (RS4;11 cells) | IC50 (AGS cells)
6 | CCC(=O)N(C)c1ccc(-c2ccc(C(=O)NCc3cccnc3)cc2)c(Cl)c1 [Compound I-224, 2′-chloro-4′-(N-methylpropionamido)-N-(pyridin-3-ylmethyl)-[1,1′-biphenyl]-4-carboxamide] | 1480 nM | 1100 nM | 5320 nM | 
7 | CCC(=O)N(C)c1ccc(-c2ccc(C(=O)NCc3cccnc3)cc2)cc1 [Compound I-45, 4′-(N-methylpropionamido)-N-(pyridin-3-ylmethyl)-[1,1′-biphenyl]-4-carboxamide] | 4450 nM | 218 nM | 689 nM | 4290 nM
8 | CCC(=O)N(C)c1ccc(-c2ccc(C(=O)NCc3cccnc3)cn2)cc1C [Compound I-232, 6-(3-methyl-4-(N-methylpropionamido)phenyl)-N-(pyridin-3-ylmethyl)nicotinamide] | 1280 nM | 1220 nM | 231 nM | 
9 | CCOC(=O)N(C)c1ccc(-c2ccc(C(=O)NCc3cccnc3)cc2)cc1 [Compound I-231, ethyl methyl(4′-((pyridin-3-ylmethyl)carbamoyl)-[1,1′-biphenyl]-4-yl)carbamate] | 3410 nM | 741 nM | 2920 nM | 
10 | CCC(=O)N(C)Cc1ccc(-c2ccc(C(=O)NCc3cccnc3)cc2)cc1 [Compound I-228, 4′-((N-methylpropionamido)methyl)-N-(pyridin-3-ylmethyl)-[1,1′-biphenyl]-4-carboxamide] | 3810 nM | 765 nM | 1930 nM | 
11 | CCC(=O)N1CCc2cc(-c3ccc(C(=O)NCc4cccnc4)cc3)ccc21 [Compound I-43, 4-(1-propionylindolin-5-yl)-N-(pyridin-3-ylmethyl) benzamide] | 2480 nM | 2930 nM | 606 nM | 2360 nM
12 | CCC(=O)N(C)c1ccc(-c2nc(C(=O)NCc3cccnc3)cs2)cc1 [Compound I-241, 2-(4-(N-methylpropionamido)phenyl)-N-(pyridin-3-ylmethyl)thiazole-4-carboxamide] | > 30000 nM | 3920 nM | 10500 nM | 
